Paper PMC10945555, “Improving Activity of New Arylurea Agents against Multidrug-Resistant and Biofilm-Producing Staphylococcus epidermidis” (ACS Medicinal Chemistry Letters, 2024)
≈ marks a conversion by molar mass, not a printed value.

Assays:
horse red blood cells = test: Hemolytic activity assay
Procedure: 2.3.3 Hemolytic activity assay
The hemolytic properties of tested compound were evaluated according to previously reported procedure.6 Defibrinated horse red blood cells purchased from Thermo Fisher Scientific (Germany) were washed with PBS (3000 rpm, 10 min at 4 °C) for three times followed by PBS dilution to obtain a 8% suspension. Then, 100 μL of the resulting suspensions […]
were treated with 100 μL of tested compound at the final concentration of 200 μM, and incubated at 37 °C for 1 h. Triton X-100 (2%) and PBS were used as positive and negative controls, respectively. After centrifugation at 3000 rpm for 3 min, 100 μL of the supernatants were transferred to a 96 well microtiter plate and the hemoglobin release was determined in a SpectraMax iD3 reader (Molecular Devices) by absorption at 540 nm. […]

BJ cells = test: Cytotoxicity, MTT assay, skin fibroblasts; format: cell-based, human; settings: Homo sapiens, MTT, 24 h, n = 3
Procedure: The following cell models were used in the research: rat cardiomyocytes (H9c2 line) and human skin fibroblasts (BJ line). All cell lines used in the work are commercially available and were purchased from ATCC banks (the American Type Culture Collection, Manassas, VI, USA). Cell cultures were carried out in an incubator under standard conditions (37°C, 5% CO 2).
Culture media (Dulbecco's Modified Eagle's Medium -DMEM (H9c2) and Eagle's Minimum Essential Medium-EMEM (BJ) were supplemented with 10% bovine serum and a 1% mixture of penicillin and streptomycin antibiotics. […]
doxorubicin (a cytotoxic drug) were used as reference and positive control, respectively. […]
solution (5 mg/mL) was transferred into culture medium of incubated cells. After 3 h, once dark crystals of formazan were produced in cells, medium was aspirated and 100 μ L of DMSO was added to dissolve formazan. Absorbance of DMSO solution was read on a multiwell plate reader (Spectra Max iD3, Molecular Devices) at 570 nm. In order to determine viability, absorbance of experimental wells was divided by absorbance of contro l well (not treated) and multiplied by 100 (%). Three separate experiments were performed. IC 50 was calculated using non-linear regression method in OriginPro software. […]

[1] = system: biofilm-producing Staphylococcus epidermidis strains; test: Inhibition of biofilm formation (MBIC, resazurin); format: cell-based
Procedure: After 24 hours incubation each well of
concentration of 4 mg/mL was added. […]

[2] = system: biofilm-producing Staphylococcus epidermidis strains; test: Biofilm eradication (MBEC Assay Kit); format: cell-based
[3] = S. epidermidis ATCC 35984 (Table S4)

With `O=S(=O)(NC1CCN(CCC(Oc2ccc(C(F)(F)F)cc2)c2ccccc2)CC1)c1cccc(Cl)c1` (stereo not drawn) [Compound 12] the “%hem (hemolytic activity)” value (horse red blood cells; 200 μM, 1 h, n = 3) was 0.48%, the lysis of erythrocytes (horse red blood cells; concentrations up to 200 μM) was “None of them caused lysis of erythrocytes” and the IC50 (BJ cells) was 7.4 µg/mL (≈ 13.4 µM). It also gave an MBIC [1, 3] of 31.25 µg/mL, an MBIC50 ([1]; Table S4 strains) of 125 µg/mL and an MBIC ([1]; clinical strain 1 (Table S4)) of 125 µg/mL. The MBIC ([1]; clinical strain 2 (Table S4)) was 125 µg/mL, the MBIC ([1]; clinical strain 3 (Table S4)) was 125 µg/mL and the MBIC ([1]; clinical strain 4 (Table S4)) was 125 µg/mL. It also gave an MBIC ([1]; clinical strain 5 (Table S4)) of 62.5 µg/mL, an MBIC ([1]; clinical strain 6 (Table S4)) of 125 µg/mL and an MBIC ([1]; clinical strain 7 (Table S4)) of 125 µg/mL. For the same molecule, the MBIC ([1]; clinical strain 8 (Table S4)) was 15.6 µg/mL, the MBIC ([1]; clinical strain 9 (Table S4)) was 125 µg/mL and the MBIC ([1]; clinical strain 11 (Table S4)) was 125 µg/mL. For the same molecule, the MBIC ([1]; clinical strain 12 (Table S4)) was 125 µg/mL, the MBIC ([1]; clinical strain 13 (Table S4)) was 62.5 µg/mL and the MBIC ([1]; clinical strain 15 (Table S4)) was 125 µg/mL. It also gave an MBIC ([1]; clinical strain 16 (Table S4)) of 62.5 µg/mL, an MBIC ([1]; clinical strain 17 (Table S4)) of 62.5 µg/mL and an MBIC ([1]; clinical strain 19 (Table S4)) of 31.25 µg/mL. The MBIC ([1]; clinical strain 21 (Table S4)) was 125 µg/mL, the MBIC ([1]; clinical strain 22 (Table S4)) was 125 µg/mL and the MBIC ([1]; clinical strain 23 (Table S4)) was 31.25 µg/mL. It also gave an MBIC ([1]; clinical strain 25 (Table S4, Figure 2)) of 31.25 µg/mL, an MBIC ([1]; clinical strain 26 (Table S4)) of 125 µg/mL and an MBIC ([1]; clinical strain 27 (Table S4)) of 250 µg/mL. For the same molecule, the MBIC ([1]; clinical strain 28 (Table S4)) was 62.5 µg/mL, the MBIC ([1]; clinical strain 29 (Table S4)) was 62.5 µg/mL and the MBIC ([1]; clinical strain 30 (Table S4)) was 62.5 µg/mL. It also gave an MBIC ([1]; clinical strain 33 (Table S4)) of 125 µg/mL, an MBIC ([1]; clinical strain 35 (Table S4)) of 125 µg/mL and an MBIC ([1]; clinical strain 36 (Table S4)) of 62.5 µg/mL. It also gave an MBIC ([1]; clinical strain 37 (Table S4)) of 125 µg/mL, an MBIC ([1]; clinical strain 39 (Table S4)) of 31.25 µg/mL and an MBIC ([1]; clinical strain 40 (Table S4)) of 125 µg/mL. For the same molecule, the MBIC ([1]; clinical strain 41 (Table S4)) was 125 µg/mL, the MBIC ([1]; clinical strain 42 (Table S4)) was 125 µg/mL and the MBIC ([1]; clinical strain 43 (Table S4)) was 250 µg/mL. It also gave an MBIC ([1]; clinical strain 44 (Table S4)) of 31.25 µg/mL, an MBIC ([1]; clinical strain 45 (Table S4)) of 125 µg/mL and an MBIC ([1]; clinical strain 46 (Table S4)) of 125 µg/mL. It also gave an MBIC ([1]; clinical strain 47 (Table S4)) of 62.5 µg/mL, an MBIC ([1]; clinical strain 49 (Table S4)) of 31.25 µg/mL and an MBIC ([1]; clinical strain 51 (Table S4)) of 125 µg/mL. For the same molecule, the MBIC ([1]; clinical strain 55 (Table S4)) was 125 µg/mL, the MBIC ([1]; clinical strain 58 (Table S4)) was 125 µg/mL and the MBIC ([1]; clinical strain 59 (Table S4)) was 125 µg/mL. For the same molecule, the MBIC ([1]; clinical strain 65 (Table S4)) was 125 µg/mL, the MBIC ([1]; clinical strain 66 (Table S4)) was 125 µg/mL and the MBIC ([1]; clinical strain 67 (Table S4)) was 125 µg/mL. The MBIC ([1]; clinical strain 70 (Table S4)) was 125 µg/mL, the MBIC ([1]; clinical strain 73 (Table S4)) was 31.25 µg/mL and the MBIC ([1]; clinical strain 74 (Table S4)) was 125 µg/mL. It also gave an MBIC ([1]; clinical strain 75 (Table S4)) of 31.25 µg/mL, an MBIC ([1]; clinical strain 78 (Table S4)) of 31.25 µg/mL and an MBIC ([1]; clinical strain 79 (Table S4)) of 31.25 µg/mL. For the same molecule, the MBEC [2, 3] was 31.25 µg/mL, the MBEC50 ([2]; Table S4 strains) was 125 µg/mL and the MBEC ([2]; clinical strain 1 (Table S4)) was 125 µg/mL. It also gave an MBEC ([2]; clinical strain 2 (Table S4)) of 125 µg/mL, an MBEC ([2]; clinical strain 3 (Table S4)) of 250 µg/mL and an MBEC ([2]; clinical strain 4 (Table S4)) of 125 µg/mL. For the same molecule, the MBEC ([2]; clinical strain 5 (Table S4)) was 125 µg/mL, the MBEC ([2]; clinical strain 6 (Table S4)) was 125 µg/mL and the MBEC ([2]; clinical strain 7 (Table S4)) was 125 µg/mL. The MBEC ([2]; clinical strain 8 (Table S4)) was 62.5 µg/mL, the MBEC ([2]; clinical strain 9 (Table S4)) was 250 µg/mL and the MBEC ([2]; clinical strain 11 (Table S4)) was 125 µg/mL. The MBEC ([2]; clinical strain 12 (Table S4)) was 125 µg/mL, the MBEC ([2]; clinical strain 13 (Table S4)) was 62.5 µg/mL and the MBEC ([2]; clinical strain 15 (Table S4)) was 125 µg/mL. It also gave an MBEC ([2]; clinical strain 16 (Table S4)) of 62.5 µg/mL, an MBEC ([2]; clinical strain 17 (Table S4)) of 62.5 µg/mL and an MBEC ([2]; clinical strain 19 (Table S4)) of 31.25 µg/mL. It also gave an MBEC ([2]; clinical strain 21 (Table S4)) of 125 µg/mL, an MBEC ([2]; clinical strain 22 (Table S4)) of 125 µg/mL and an MBEC ([2]; clinical strain 23 (Table S4)) of 31.25 µg/mL. For the same molecule, the MBEC ([2]; clinical strain 25 (Table S4)) was 31.25 µg/mL, the MBEC ([2]; clinical strain 26 (Table S4)) was 250 µg/mL and the MBEC ([2]; clinical strain 27 (Table S4)) was 250 µg/mL. It also gave an MBEC ([2]; clinical strain 28 (Table S4)) of 125 µg/mL, an MBEC ([2]; clinical strain 29 (Table S4)) of 125 µg/mL and an MBEC ([2]; clinical strain 30 (Table S4)) of 125 µg/mL. For the same molecule, the MBEC ([2]; clinical strain 33 (Table S4)) was 125 µg/mL, the MBEC ([2]; clinical strain 35 (Table S4)) was 125 µg/mL and the MBEC ([2]; clinical strain 36 (Table S4)) was 125 µg/mL. It also gave an MBEC ([2]; clinical strain 37 (Table S4)) of 125 µg/mL, an MBEC ([2]; clinical strain 39 (Table S4)) of 31.25 µg/mL and an MBEC ([2]; clinical strain 40 (Table S4)) of 125 µg/mL. For the same molecule, the MBEC ([2]; clinical strain 41 (Table S4)) was 125 µg/mL, the MBEC ([2]; clinical strain 42 (Table S4)) was 125 µg/mL and the MBEC ([2]; clinical strain 43 (Table S4)) was 250 µg/mL. For the same molecule, the MBEC ([2]; clinical strain 44 (Table S4)) was 31.25 µg/mL, the MBEC ([2]; clinical strain 45 (Table S4)) was 125 µg/mL and the MBEC ([2]; clinical strain 46 (Table S4)) was 125 µg/mL. It also gave an MBEC ([2]; clinical strain 47 (Table S4)) of 62.5 µg/mL, an MBEC ([2]; clinical strain 49 (Table S4)) of 31.25 µg/mL and an MBEC ([2]; clinical strain 51 (Table S4)) of 250 µg/mL. The MBEC ([2]; clinical strain 55 (Table S4)) was 125 µg/mL, the MBEC ([2]; clinical strain 58 (Table S4)) was 125 µg/mL and the MBEC ([2]; clinical strain 59 (Table S4)) was 125 µg/mL. The MBEC ([2]; clinical strain 65 (Table S4)) was 125 µg/mL, the MBEC ([2]; clinical strain 66 (Table S4)) was 125 µg/mL and the MBEC ([2]; clinical strain 67 (Table S4)) was 125 µg/mL. The MBEC ([2]; clinical strain 70 (Table S4)) was 250 µg/mL, the MBEC ([2]; clinical strain 73 (Table S4)) was 31.25 µg/mL and the MBEC ([2]; clinical strain 74 (Table S4)) was 125 µg/mL. The MBEC ([2]; clinical strain 75 (Table S4)) was 31.25 µg/mL, the MBEC ([2]; clinical strain 78 (Table S4)) was 31.25 µg/mL and the MBEC ([2]; clinical strain 79 (Table S4)) was 31.25 µg/mL.
